Measured values reported in patent US20090162313A1, “High-Molecular Weight Conjugate of Podophyllotoxins” (priority 2006, published 2009).

Key:
[1] = Relative body weight of tumor-bearing mice, Test Example 3; type: in vivo, mouse; settings: 90 mg/kg once i.v., female CDF1 mice
Description: (§1) Mouse colon cancer, Colon 26, maintained by serial subcutaneous subculture in mice, was minced into about 2-mm square fragments, and the fragments were subcutaneously transplanted on the dorsal part of female CDF1 mice with a trocar. […] The control group means a group to which the drug was not administered. Compound 1 was dissolved in a 5% glucose solution for injection and used. As for […] injection (manufactured by Nippon Kayaku Co., Ltd.) was diluted with a 5% glucose solution for injection and used. After the administration, the major axis (L mm) and the minor axis (W mm) of the tumor were measured using a caliper, and the tumor volume was calculated by the formula: (L×W^2)/2. […] The changes of the body weight during this period of time is also shown in Table 1 as the relative body weight based on the body weight on the day of administration.

[2] = tested on: Mouse colon cancer, Colon 26; test: Antitumor effect of compound 1, subcutaneously transplanted tumor, relative tumor volume; type: in vivo; settings: 90 mg/kg once i.v., female CDF1 mice
Description: as §1

[3] = Relative body weight of tumor-bearing mice, Test Example 4; type: in vivo, mouse; settings: 15 mg/kg i.v. for 5 consecutive days (total 75 mg/kg), female CDF1 mice
Description: (§2) Mouse colon cancer, Colon 26, maintained by serial subcutaneous subculture in mice, was minced into about 2 mm-square fragments, and the fragments were transplanted subcutaneously on the dorsal part of female CDF1 mice with a trocar. […] The control group means a group to which the drug was not administered. POD, purchased from Sigma-Aldrich Company, was diluted with dimethylsulfoxide and a 5% glucose solution for injection and administered for 5 consecutive days from the administration initiation day. After the administration, the major axis (L mm) and the minor axis (W mm) of the tumor were measured using a caliper, and the tumor volume was calculated by the formula: (L×W^2)/2. […] The changes of the body weight during this period of time is also shown in Table 2 as the relative body weight based on the body weight on the day of administration.

[4] = tested on: Mouse colon cancer, Colon 26; test: Antitumor action of compounds 2 and 3, subcutaneously transplanted tumor, relative tumor volume; type: in vivo; settings: 15 mg/kg i.v. for 5 consecutive days (total 75 mg/kg), female CDF1 mice
Description: as §2

[5] = day 0 after administration initiation day
[6] = day 3 after administration initiation day
[7] = day 5 after administration initiation day
[8] = day 8 after administration initiation day

Structure (SMILES)	Relative body weight ([1]; day 0 after administration)	Relative body weight ([1]; day 4 after administration)	Relative body weight ([1]; day 8 after administration)	Relative tumor volume ([2]; day 0 after administration)	Relative tumor volume ([2]; day 4 after administration)	Relative tumor volume ([2]; day 8 after administration)	Relative body weight [3, 5]	Relative body weight [3, 6]	Relative body weight [3, 7]	Relative body weight [3, 8]	Relative tumor volume [4, 5]	Relative tumor volume [4, 6]	Relative tumor volume [4, 7]	Relative tumor volume [4, 8]
COc1cc([C@@H]2c3cc4c(cc3[C@@H](O[C@@H]3O[C@@H]5CO[C@@H](C)O[C@H]5[C@H](O)[C@H]3O)[C@H]3COC(=O)[C@H]23)OCO4)cc(OC)c1O [ETP, etoposide]	1.00	0.87	0.97	1.00	1.17	3.79	–	–	–	–	–	–	–	–
COc1cc([C@@H]2c3cc4c(cc3[C@H](O)[C@H]3COC(=O)[C@H]23)OCO4)cc(OC)c1OC [POD, podophyllotoxin]	–	–	–	–	–	–	1.00	1.01	0.96	0.98	1.00	1.58	1.79	6.08
